What is called GI50 is the concentration that inhibits growth by half.

The text below walks through data of ChEMBL document CHEMBL1201862, “PubChem BioAssay data set” (2004).

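Assay format: 96-well plates, 48-hour exposure. Here, GI50 denotes the concentration required for 50% inhibition of growth.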 Activity calls are given as the source filed them. No stated cut-off is given here; in the data, active = GI50 up to about 1.1 µM and inactive = higher. A value given as a limit tells only on which side of the number the result lay.

What all share (assay): DTP human tumour cell line panel, 48 h
Assay [1] has as its system A549.
In assay [2] the test system is ACHN.
Assay [3] concerns BT-549.
In assay [4] the test system is CAKI-1.
Assay [5] has as its system EKVX.
The subject of assay [6] is HCC 2998.
The subject of assay [7] is Hs-578T.
The subject of assay [8] is KM12.
In assay [9] the test system is M14.
The subject of assay [10] is MDA-MB-231.
The subject of assay [11] is NCI-H226.
In assay [12] the test system is OVCAR-5.
The subject of assay [13] is RXF 393.
Assay [14] concerns SK-MEL-28.
Assay [15] deals with SK-MEL-2.
The test system of assay [16] is SN12C.
Assay [17] has as its system SNB-75.
The subject of assay [18] is UO-31.
Assay [19] has as its system MOLT-4.
Assay [20] has as its system OVCAR-8.

Regarding `CCCN1C(=O)CN(S(=O)(=O)c2ccc(Cl)cc2)C1=O`, the GI50 in [1], in [2], in assay [3], in assay [4], in assay [5] and in [6] was > 100 µM (inactive) throughout. Also, the GI50 in assay [7], in assay [8], in assay [9], in assay [10], in assay [11] and in assay [12] was > 100 µM (inactive) each time. Further, the GI50 in [13], in assay [14], in assay [15], in [16], in assay [17] and in [18] was > 100 µM (inactive) each time.

As for `COC(=O)C(=O)C(C(=O)C(=O)Nc1ccccc1C(N)=O)c1nc2ccc(Cl)cc2nc1O` (configuration not stated), the GI50 in [1] was > 100 µM (inactive); in [2] it was > 100 µM (inactive); in [3], > 100 µM (inactive); in assay [4], 82.8 µM (inactive); in [6], > 100 µM (inactive); in assay [7], 46.5 µM (inactive). Also, the GI50 in assay [8], in assay [9], in assay [10], in [19], in assay [11] and in [12] was > 100 µM (inactive) each time. The GI50 in [20] is > 100 µM (inactive); in [13], > 100 µM (inactive); in [14], > 100 µM (inactive); in [15], > 100 µM (inactive); in assay [16] it was > 100 µM (inactive); in [17], 33.7 µM (inactive). Moreover, the GI50 in assay [18] is > 100 µM (inactive).

On to `CC(C)/C(Cl)=N\OC(=O)NNc1ccccc1`, for which the GI50 was 0.0721 µM (active) in assay [1]; 14.1 µM (inactive) in assay [2]; 17.5 µM (inactive) in [3]; 14.8 µM (inactive) in [4]; 15.3 µM (inactive) in [5]; 44.9 µM (inactive) in assay [6]. Further, the GI50 in assay [7] was 54.6 µM (inactive); in assay [8] it was 1.55 µM (inactive); in assay [9], 3.47 µM (inactive); in assay [10], 41.9 µM (inactive); in assay [19] it was < 0.01 µM (active); in assay [11], 27 µM (inactive). Further, the GI50 in [12] was > 100 µM (inactive); in [20], 0.168 µM (active); in assay [13] it was > 100 µM (inactive); in assay [15], > 32.1 µM (inactive); in [16], > 48.1 µM (inactive); in assay [17], > 100 µM (inactive). In [18], the GI50 was 0.0178 µM (active).

Regarding `COC(=O)C(=O)C(C(=O)OC)C(=O)C(=O)Nc1c(Cl)cc([N+](=O)[O-])cc1Cl` (configuration not stated), the GI50 in assay [1] is > 100 µM (inactive); in [2], 80.2 µM (inactive); in assay [3], > 100 µM (inactive); in assay [4], > 100 µM (inactive); in assay [5], 48.6 µM (inactive); in assay [6] it was > 100 µM (inactive). Also, the GI50 is 66.2 µM (inactive) in assay [7]; > 100 µM (inactive) in [8]; > 100 µM (inactive) in assay [9]; > 100 µM (inactive) in [10]; > 100 µM (inactive) in assay [11]; > 100 µM (inactive) in assay [12]. Besides, the GI50 in [20] was 46 µM (inactive); in [13], 81.3 µM (inactive); in assay [14], > 100 µM (inactive); in assay [15] it was > 100 µM (inactive); in assay [16] it was > 100 µM (inactive); in assay [17], 64.1 µM (inactive). The GI50 in assay [18] is > 100 µM (inactive).

As for `CCOC(=O)CCCn1cc(C(=O)OC)nn1`, the GI50 in assay [1], in assay [2], in assay [3], in assay [4], in assay [5] and in [6] was > 100 µM (inactive) in each case. Also, the GI50 in assay [7], in [8], in [10], in [19], in [11] and in assay [20] was > 100 µM (inactive) in each case. In addition, the GI50 in assay [13], in assay [14], in assay [15], in assay [16], in assay [17] and in assay [18] was > 100 µM (inactive) throughout.

In the case of `C/C(=C1/N=C(c2ccccc2)OC1=O)c1cccs1`, the GI50 in assay [1] was 64.7 µM (inactive); in assay [2], > 100 µM (inactive); in assay [3], > 100 µM (inactive); in assay [4], > 100 µM (inactive); in assay [5], > 100 µM (inactive); in assay [6], > 100 µM (inactive). Besides, the GI50 in assay [7] is 73.5 µM (inactive); in assay [8], > 100 µM (inactive); in [9], > 100 µM (inactive); in [10], 66.7 µM (inactive); in [19], > 100 µM (inactive); in assay [11], > 100 µM (inactive). Moreover, the GI50 in assay [12] was > 100 µM (inactive); in assay [20], 68.9 µM (inactive); in assay [13] it was > 100 µM (inactive); in assay [14], > 100 µM (inactive); in assay [15], > 100 µM (inactive); in [16], > 100 µM (inactive). The GI50 in assay [17] is 76.4 µM (inactive).

Take `Cc1c2oc(=O)c(C#N)cc2c2ccccn12`: the GI50 in [1] is > 100 µM (inactive); in assay [2] it was > 100 µM (inactive); in assay [3], 25.8 µM (inactive); in assay [4], 62.8 µM (inactive); in assay [5], > 100 µM (inactive); in assay [6] it was > 100 µM (inactive). Moreover, the GI50 in [7] was > 100 µM (inactive); in assay [8], 27.6 µM (inactive); in assay [9] it was 70.1 µM (inactive); in assay [10] it was > 100 µM (inactive); in assay [19], > 100 µM (inactive); in [11] it was > 100 µM (inactive). The GI50 in [12], in assay [20], in assay [13], in assay [14], in assay [15] and in assay [17] was > 100 µM (inactive) throughout. In addition, the GI50 in assay [18] is 60.7 µM (inactive).

Consider `COCn1cnc2c(=O)nc(SC)n(-c3ccccc3)c21`, for which the GI50 in [1], in assay [2], in assay [3], in assay [4], in assay [5] and in [6] was > 100 µM (inactive) each time. Besides, the GI50 in [7], in assay [8], in assay [9], in assay [10], in assay [19] and in assay [11] was > 100 µM (inactive) in each case. Further, the GI50 in assay [12], in assay [20], in assay [13], in assay [15], in [16] and in assay [17] was > 100 µM (inactive) each time. Also, the GI50 in assay [18] was > 100 µM (inactive).

For `O=C(/C=C/C=C/c1ccccc1)c1ccccc1`, the GI50 in [1] is 18.1 µM (inactive); in [3] it was 18.8 µM (inactive); in [4], 17.1 µM (inactive); in assay [5], 15.3 µM (inactive); in assay [6], 17.8 µM (inactive); in [7], 20 µM (inactive). Further, the GI50 was 14.3 µM (inactive) in assay [8]; 18 µM (inactive) in assay [9]; 21.5 µM (inactive) in [10]; 14.6 µM (inactive) in [19]; 16.7 µM (inactive) in assay [11]; 14.7 µM (inactive) in assay [12]. In addition, the GI50 is 13.4 µM (inactive) in assay [20]; 17.6 µM (inactive) in [13]; 17.5 µM (inactive) in [14]; 20.8 µM (inactive) in assay [15]; 15.9 µM (inactive) in assay [16]; 17.8 µM (inactive) in [17]. The GI50 in assay [18] is 18.3 µM (inactive).

Turning to `COc1ccc2c(=O)cc(-c3ccc(OC)c(OC)c3OC)oc2c1`, the GI50 in assay [1] was 4.81 µM (inactive); in assay [2], > 63.2 µM (inactive); in assay [3] it was > 100 µM (inactive); in assay [4] it was > 82.4 µM (inactive); in [5], > 64.3 µM (inactive); in assay [6], > 63.8 µM (inactive). Besides, the GI50 was 47.6 µM (inactive) in assay [7]; > 43.7 µM (inactive) in [8]; > 100 µM (inactive) in assay [9]; 38.7 µM (inactive) in [10]; 55.5 µM (inactive) in [19]; > 65.9 µM (inactive) in [11]. The GI50 in [12] was > 69 µM (inactive); in [20], > 100 µM (inactive); in assay [13], > 80.9 µM (inactive); in assay [14] it was > 100 µM (inactive); in assay [16], 61.4 µM (inactive); in assay [17] it was 23.4 µM (inactive). Also, the GI50 in assay [18] was > 100 µM (inactive).

For the compound `O=C(O)CN1CCN(CC(=O)O)CCN(CC(=O)O)CCN(CC(=O)O)CC1` [TETRAXETAN], the GI50 in assay [1], in assay [2], in [3], in assay [4], in [5] and in assay [6] was > 100 µM (inactive) throughout. Moreover, the GI50 in [7], in [8], in assay [9], in assay [10], in assay [19] and in assay [11] was > 100 µM (inactive) in each case. The GI50 in assay [12], in assay [20], in assay [13], in assay [15], in assay [16] and in [17] was > 100 µM (inactive) each time. In assay [18], the GI50 was > 100 µM (inactive).
